{
  "source": "PubChem BioAssay AID1648",
  "about": "(Sanford-Burnham Center for Chemical Genomics, 2009)",
  "note": "Activity calls are given as the source filed them. No rule for the calls is given here.",
  "data": [
    {"molecular_target": "Serine/threonine-protein kinase mTOR (Homo sapiens) (UniProt P42345)", "sequence (P42345 2015-2114)": "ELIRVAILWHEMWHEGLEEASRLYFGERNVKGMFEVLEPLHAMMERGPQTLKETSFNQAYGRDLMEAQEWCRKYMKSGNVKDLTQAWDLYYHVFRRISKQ", "test": "mTOR FRB domain ligand binding – biophysical, NMR (AID 1648)", "settings": "NMR binding to FRB domain, chemical shift", "values": [
      {"smiles": "NC1Cc2ccccc2C1", "Kd": "> 4 mM (inactive)"},
      {"smiles": "C/C=C/C(=O)Nc1ccc(NC(C)=O)cc1", "Kd": "> 4 mM (inactive)"},
      {"smiles": "Cc1cc(NC(=O)c2cc(C)on2)no1", "Kd": "> 4 mM (inactive)"},
      {"smiles": "O=C(O)c1cncc(-c2cccs2)c1", "Kd": "> 4 mM (inactive)"},
      {"smiles": "CC(=O)Nc1ccc(-c2ccc3nncn3n2)cc1", "Kd": "> 4 mM (inactive)"},
      {"smiles": "N#CCc1nc2ccccc2s1", "Kd": "> 4 mM (inactive)"},
      {"smiles": "Cc1nnc(SCc2ccon2)n1-c1ccccc1", "Kd": "> 4 mM (inactive)"},
      {"smiles": "O=C1C[C@@H](c2ccc(O)cc2)Oc2cc(O)cc(O)c21", "Kd": "> 4 mM (inactive)"},
      {"smiles": "COc1c2ccoc2cc2oc(C)cc(=O)c12", "Kd": "> 4 mM (inactive)"},
      {"smiles": "Cc1nc(-c2ccccc2)ncc1C(=O)O", "Kd": "> 4 mM (inactive)"},
      {"smiles": "NC(=O)CCS(=O)(=O)CCN1CCOCC1", "Kd": "> 4 mM (inactive)"},
      {"smiles": "O=C(NCc1cccs1)c1nc2ncccn2n1", "Kd": "> 4 mM (inactive)"},
      {"smiles": "COc1cc2c(cc1OC)Cc1cc(OC)c(OC)cc1Cc1cc(OC)c(OC)cc1C2", "Kd": "> 4 mM (inactive)"},
      {"smiles": "CCC1(CC)C(=O)N=C(N)NC1=O", "Kd": "> 4 mM (inactive)"},
      {"smiles": "O=C(CCc1n[nH]c(=O)[nH]c1=O)NCc1ccccc1", "Kd": "> 4 mM (inactive)"},
      {"smiles": "CCC(C)C(=O)O[C@@H]1C[C@@]2(C)[C@H](c3ccoc3)OC(=O)CC23OC2(C)O[C@]14[C@]1(C)[C@@H](CC(=O)OC)C5(C)CC1(O)[C@](O)(C5OC(=O)C1(C)OC1C)[C@@H](OC(C)=O)[C@]34O2", "note": "(stereo partly drawn)", "Kd": "> 4 mM (inactive)"},
      {"smiles": "CC(=O)c1c(C)nc(-c2cccs2)n1O", "Kd": "> 4 mM (inactive)"},
      {"smiles": "CN1CCC(NC(=O)c2ccccc2[N+](=O)[O-])CC1", "Kd": "> 4 mM (inactive)"},
      {"smiles": "NC(=O)Nc1cccc(C(F)(F)F)c1", "Kd": "> 4 mM (inactive)"},
      {"smiles": "CC(C)=NNC(=O)c1ccccc1", "Kd": "> 4 mM (inactive)"},
      {"smiles": "COc1ccc(N/C(N)=N\\c2nc(C)cc(C)n2)cc1", "Kd": "> 4 mM (inactive)"},
      {"smiles": "Oc1ccc2nonc2c1", "Kd": "> 4 mM (inactive)"},
      {"smiles": "CCOc1ccc(N2C(=O)CCC2=O)cc1", "Kd": "> 4 mM (inactive)"},
      {"smiles": "O=C(O)C1Cc2ccccc2N1", "note": "(stereo not drawn)", "Kd": "> 4 mM (inactive)"},
      {"smiles": "COc1ccc([C@H]2COc3c(ccc(O)c3OC)C2)c(OC)c1O", "Kd": "> 4 mM (inactive)"},
      {"smiles": "Cc1c(C(=O)O)cnn1-c1ccccc1", "Kd": "> 4 mM (inactive)"},
      {"smiles": "CC(=O)N1CC2(C)CN(C(C)=O)CC(C)(C1)C2", "Kd": "> 4 mM (inactive)"},
      {"smiles": "COc1ccc(CC(=O)c2ccc(O)cc2O)cc1", "Kd": "> 4 mM (inactive)"},
      {"smiles": "CSc1nsc(SCc2cnc(C)nc2N)n1", "Kd": "> 4 mM (inactive)"},
      {"smiles": "O=C(O)c1cc(=O)[nH]c2ccccc12", "Kd": "> 4 mM (inactive)"},
      {"smiles": "Cc1cc(C)n2nc(Cc3ccccc3)nc2n1", "Kd": "> 4 mM (inactive)"},
      {"smiles": "CCN1CCC(=NO)CC1", "Kd": "> 4 mM (inactive)"},
      {"smiles": "Cc1occc1C(=O)Nc1nnc(C(F)(F)F)s1", "Kd": "> 4 mM (inactive)"},
      {"smiles": "C/C=C1\\[C@H]2C=C(C)C[C@]1(N)c1ccc(=O)[nH]c1C2", "Kd": "> 4 mM (inactive)"},
      {"smiles": "CC(=O)Nc1sccc1C(=O)NC(N)=O", "Kd": "> 4 mM (inactive)"},
      {"smiles": "OC[C@H]1O[C@@H](n2cnc3c(NCc4ccco4)ncnc32)[C@H](O)[C@@H]1O", "Kd": "> 4 mM (inactive)"},
      {"smiles": "COc1c2c(cc3c1OCO3)CCN(C)C2", "Kd": "> 4 mM (inactive)"},
      {"smiles": "NC(=O)C1CCN(C(=S)Nc2ccccc2)CC1", "Kd": "> 4 mM (inactive)"},
      {"smiles": "NC(=O)C1CCN(C(=O)CN2CCc3ccccc32)CC1", "Kd": "> 4 mM (inactive)"},
      {"smiles": "COc1c(O)cc2c(c1O)[C@H]1O[C@H](CO)[C@@H](O)[C@H](O)[C@@H]1OC2=O", "Kd": "> 4 mM (inactive)"},
      {"smiles": "COc1ccc(NC(=O)N2CCCCC2)cc1", "Kd": "> 4 mM (inactive)"},
      {"smiles": "O=C(NCc1cccc(Cl)c1)c1ccco1", "Kd": "> 4 mM (inactive)"},
      {"smiles": "CCCCC(Nc1n[nH]c(=O)[nH]c1=O)C(=O)O", "note": "(stereo not drawn)", "Kd": "> 4 mM (inactive)"},
      {"smiles": "CC1(C)CC[C@]2(C)CC[C@]3(C)C(=CCC4[C@@]5(C)CC[C@H](O)C(C)(C)C5CC[C@]43C)C2C1", "note": "(stereo partly drawn)", "Kd": "> 4 mM (inactive)"},
      {"smiles": "CNC(=S)N1CCN(C(=O)c2ccco2)CC1", "Kd": "> 4 mM (inactive)"},
      {"smiles": "COc1ccc(NC(=O)C(N)=O)cc1Cl", "Kd": "> 4 mM (inactive)"},
      {"smiles": "O=C1C2C3C=CC(C3)C2C(=O)N1CCCO", "note": "(stereo not drawn)", "Kd": "> 4 mM (inactive)"},
      {"smiles": "CC1(C)CC2(C)N(N)C(=O)CN2C(=S)N1", "note": "(stereo not drawn)", "Kd": "> 4 mM (inactive)"},
      {"smiles": "CN(C)C(=O)Oc1ccc(-c2nnco2)cc1", "Kd": "> 4 mM (inactive)"},
      {"smiles": "COCC(=O)Nc1ccc(C)c(Cl)c1", "Kd": "> 4 mM (inactive)"},
      {"smiles": "O=C(c1ccc(N2CCNCC2)cc1)c1cccnc1", "Kd": "> 4 mM (inactive)"},
      {"smiles": "CCOC(=O)c1cnn2ccccc12", "Kd": "> 4 mM (inactive)"},
      {"smiles": "NC(=O)Cn1nc2c3c(cccc3c1=O)-c1ccccc1-2", "Kd": "> 4 mM (inactive)"},
      {"smiles": "OC1CCN(c2nccc(C(F)(F)F)n2)CC1", "Kd": "> 4 mM (inactive)"},
      {"smiles": "NC(=O)c1ccccc1N=Cc1ccco1", "Kd": "> 4 mM (inactive)"},
      {"smiles": "Nc1ccc2c(c1)CCCC2=O", "Kd": "> 4 mM (inactive)"},
      {"smiles": "Cc1cc(C)n2nc(-c3cccnc3)nc2n1", "Kd": "> 4 mM (inactive)"},
      {"smiles": "OCc1ccc2c(c1)OCCCO2", "Kd": "> 4 mM (inactive)"}
    ]}
  ]
}
